Assay results from PubChem BioAssay (NCI).
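A five-concentration, 48-hour dose response in 96-well plates underlies each endpoint, interpolated linearly between surrounding concentrations. The concentration for 50% growth inhibition is given as GI50. The concentration for full growth arrest is given as TGI.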

Legend:
Assay in all cases: NCI tumour cell line growth inhibition, 48 h
[1] = tested on: OVCAR-5 ovarian
[2] = tested on: M14 melanoma
[3] = tested on: NCI-H23 lung
[4] = tested on: SF-539 CNS
[5] = tested on: MOLT-4 leukemia
[6] = tested on: HT29 colon
[7] = tested on: A498 renal
[8] = tested on: RXF 393 renal
[9] = tested on: U251 CNS
[10] = tested on: UO-31 renal

Row | SMILES | TGI [1] [µM] | TGI [2] [µM] | TGI [3] [µM] | TGI [4] [µM] | TGI [5] [µM] | TGI [6] [µM] | TGI [7] [µM] | TGI [8] [µM] | TGI [9] [µM] | TGI [10] [µM] | GI50 [1] [µM] | GI50 [2] [µM] | GI50 [3] [µM] | GI50 [4] [µM] | GI50 [5] [µM] | GI50 [6] [µM] | GI50 [7] [µM] | GI50 [8] [µM] | GI50 [9] [µM] | GI50 [10] [µM]
1 | CN(C=O)/C=C/c1cc(O)ccc1O | 63.9 | > 57.9 | 64.3 | > 65.4 | 29.4 | 49.2 | > 100 | 34.1 | > 69.7 | 47 | – | – | – | – | – | – | – | – | – | –
2 | CC/C=C\C/C=C\C[C@H](O)C/C=C1/C(=O)C=C[C@@H]1C/C=C\CCCC(=O)OC | 6.94 | 3.53 | 5.29 | 6.09 | 4.41 | 3.21 | 4.67 | 3.61 | 2.83 | 3.03 | 2.75 | 1.43 | 2.19 | 2.53 | 1.2 | 1.48 | 2.48 | 1.97 | 1.45 | 1.55
3 | CNC(=O)CN(CC(N)=O)C(N)=O | > 100 | > 100 | > 100 | > 100 | > 100 | > 100 | > 100 | > 100 | > 100 | > 100 | – | – | – | – | – | – | – | – | – | –
4 | CCOc1ccc(C(CN2CCOCC2)C(C)=O)cc1OC (stereo not given) | 33.2 | 33.7 | 32.9 | 32.8 | > 100 | 34.8 | 59 | 41.1 | 31.9 | 27.8 | – | – | – | – | – | – | – | – | – | –
5 | COC(=O)c1c(C)nc(C)c(NO)c1-c1ccccc1C(F)(F)F | > 100 | 39.5 | 84.3 | 38.6 | > 100 | 33.7 | > 100 | 32 | > 100 | 74.2 | – | – | – | – | – | – | – | – | – | –
6 | CN1CCN(c2nc(-c3ccncc3)nc3sc4c(c23)CCCCCC4)CC1 | 22.9 | 18 | 24.3 | 21 | 16.2 | 17.3 | 7.56 | 19 | 25 | 8.85 | 10.8 | 5.32 | 11.4 | 8.32 | 3.8 | 4.75 | 1.06 | 4.08 | 9.29 | 1.57
7 | CC1CCC2N(C1)CC1C3(O)CC45OC6(O)C(O)CCC4(C)C6CCC5C3(O)CC(O)C1(O)C2(C)O (stereo not given) | > 100 | > 100 | > 100 | > 100 | > 100 | > 100 | > 100 | > 100 | > 100 | > 100 | – | – | – | – | – | – | – | – | – | –
8 | CC(NC(=O)c1ccccc1)(C(=O)O)C(=O)O | > 100 | > 100 | > 100 | > 100 | > 100 | > 100 | > 100 | > 100 | > 100 | > 100 | – | – | – | – | – | – | – | – | – | –
9 | CC(=O)Oc1ccc(/C=N/NC(N)=S)nc1 | > 100 | 8.72 | > 100 | > 100 | > 100 | > 100 | 58.9 | > 100 | > 100 | 14.1 | 69 | 2.72 | 2.39 | 2.36 | 2.57 | 19 | 4.88 | 4.24 | 4.17 | 3.51
10 | COc1ccc(S(=O)(=O)N(C)CC(=O)O)cc1 | > 100 | > 100 | > 100 | > 100 | > 100 | > 100 | > 100 | > 100 | > 100 | > 100 | – | – | – | – | – | – | – | – | – | –
11 | CN1CCc2c1nc(-c1ccc([N+](=O)[O-])cc1)c1c2N(C)CC1 | > 100 | > 100 | > 100 | > 100 | > 100 | > 100 | > 100 | > 100 | > 100 | > 100 | – | – | – | – | – | – | – | – | – | –
12 | C[N+](C)(C)CC1CCCC(C[N+](C)(C)C)C1O (stereo not given) | > 100 | > 100 | > 100 | > 100 | > 100 | > 100 | > 100 | > 100 | > 100 | > 100 | – | – | – | – | – | – | – | – | – | –
13 | O=C(NCCCCCCCNC(=O)OCc1ccc2c(Cl)cc(Cl)c(O)c2n1)OCc1ccc2c(Cl)cc(Cl)c(O)c2n1 | 3.32 | 1.73 | 3.2 | 1.48 | 2 | 2.46 | 2.89 | 2.13 | 3.09 | 1.29 | 1.69 | 0.419 | 1.49 | 0.414 | 0.367 | 0.538 | 1.48 | 0.812 | 1.6 | 0.321
14 | FC1OC2OC1C(OCc1ccccc1)C(OCc1ccccc1)C2OCc1ccccc1 (stereo not given) | > 100 | > 100 | > 100 | > 100 | 67.4 | > 100 | > 100 | > 100 | > 100 | > 100 | – | – | – | – | – | – | – | – | – | –
15 | COc1cccc(/C=C/C(=O)c2cc3c(N)c(C(=O)Nc4cccc5ccccc45)sc3nc2C)c1 | 4.6 | 4.69 | > 50 | 2.8 | > 50 | 2.06 | 2.74 | 1.9 | 2.06 | 2.08 | 1.42 | 1.31 | 1.96 | 1.17 | 1.46 | 0.65 | 0.885 | 0.803 | 0.97 | 0.889
16 | S=c1nc(-c2ccnc(-c3nc(=S)[nH][nH]3)c2)[nH][nH]1 | > 100 | > 100 | > 100 | > 100 | > 100 | > 100 | > 100 | > 100 | > 100 | > 100 | – | – | – | – | – | – | – | – | – | –
17 | Nc1[nH]c(=O)ncc1CO | > 100 | > 100 | > 100 | > 100 | > 100 | > 100 | > 100 | > 100 | > 100 | > 100 | > 100 | > 100 | > 100 | > 100 | > 100 | > 100 | > 100 | > 100 | > 100 | > 100
